In patent US9926282B2, “Phthalazinones and isoquinolinones as rock inhibitors” (BRISTOL-MYERS SQUIBB COMPANY, priority 2013, dated 2018) one finds IC50 data, which are given here for 31 compounds.

One assay has as its target ROCK1 (Homo sapiens (Human), UniProt Q13464). Nature of the assay: ROCK assay (LABCHIP peptide phosphorylation), ROCK1. To be noted: 5 μM ATP, 1.5 μM peptide substrate; read-out: ROCK1 IC50. The format is biochemical.
Another assay addresses ROCK2 (Homo sapiens (Human), UniProt O75116). Briefly: ROCK assay (LABCHIP peptide phosphorylation), ROCK2. To be noted: 5 μM ATP, 1.5 μM peptide substrate. The format is biochemical.

ROCK2, sequence (O75116 whole entry, species assumed): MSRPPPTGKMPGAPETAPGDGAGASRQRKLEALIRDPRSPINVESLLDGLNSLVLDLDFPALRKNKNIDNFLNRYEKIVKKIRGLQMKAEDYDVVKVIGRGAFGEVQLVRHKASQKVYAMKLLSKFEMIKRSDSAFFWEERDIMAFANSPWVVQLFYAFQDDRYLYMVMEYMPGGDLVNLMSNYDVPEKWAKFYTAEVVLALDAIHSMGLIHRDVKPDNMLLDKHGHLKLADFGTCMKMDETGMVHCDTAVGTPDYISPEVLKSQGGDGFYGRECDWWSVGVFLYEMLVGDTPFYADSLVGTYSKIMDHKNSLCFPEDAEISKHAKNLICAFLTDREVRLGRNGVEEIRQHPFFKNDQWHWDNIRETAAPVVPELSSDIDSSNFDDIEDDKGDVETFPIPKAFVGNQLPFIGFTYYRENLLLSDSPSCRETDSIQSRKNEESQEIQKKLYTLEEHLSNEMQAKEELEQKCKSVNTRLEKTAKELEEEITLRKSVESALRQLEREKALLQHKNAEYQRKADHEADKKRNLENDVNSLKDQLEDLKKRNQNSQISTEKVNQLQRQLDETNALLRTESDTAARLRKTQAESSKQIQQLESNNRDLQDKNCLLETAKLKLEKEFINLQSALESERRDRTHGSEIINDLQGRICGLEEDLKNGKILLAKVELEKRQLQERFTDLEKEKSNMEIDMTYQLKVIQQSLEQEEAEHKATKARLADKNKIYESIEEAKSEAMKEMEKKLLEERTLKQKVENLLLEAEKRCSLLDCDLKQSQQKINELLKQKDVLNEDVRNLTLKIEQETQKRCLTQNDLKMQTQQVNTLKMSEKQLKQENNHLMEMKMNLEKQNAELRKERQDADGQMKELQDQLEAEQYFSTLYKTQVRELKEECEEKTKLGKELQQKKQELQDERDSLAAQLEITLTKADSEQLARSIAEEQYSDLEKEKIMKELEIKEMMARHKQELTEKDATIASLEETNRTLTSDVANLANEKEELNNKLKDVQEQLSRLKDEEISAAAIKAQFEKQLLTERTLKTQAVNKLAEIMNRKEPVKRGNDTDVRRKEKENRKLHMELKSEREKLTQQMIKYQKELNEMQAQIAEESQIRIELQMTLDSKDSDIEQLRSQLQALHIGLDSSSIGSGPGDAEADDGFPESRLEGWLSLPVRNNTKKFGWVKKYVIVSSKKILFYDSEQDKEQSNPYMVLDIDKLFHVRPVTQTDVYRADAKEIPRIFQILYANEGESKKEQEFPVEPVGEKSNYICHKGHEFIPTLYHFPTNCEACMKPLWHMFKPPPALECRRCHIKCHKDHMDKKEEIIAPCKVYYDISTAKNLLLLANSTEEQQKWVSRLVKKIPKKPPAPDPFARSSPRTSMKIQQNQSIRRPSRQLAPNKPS
ROCK1, sequence (Q13464 whole entry, species assumed): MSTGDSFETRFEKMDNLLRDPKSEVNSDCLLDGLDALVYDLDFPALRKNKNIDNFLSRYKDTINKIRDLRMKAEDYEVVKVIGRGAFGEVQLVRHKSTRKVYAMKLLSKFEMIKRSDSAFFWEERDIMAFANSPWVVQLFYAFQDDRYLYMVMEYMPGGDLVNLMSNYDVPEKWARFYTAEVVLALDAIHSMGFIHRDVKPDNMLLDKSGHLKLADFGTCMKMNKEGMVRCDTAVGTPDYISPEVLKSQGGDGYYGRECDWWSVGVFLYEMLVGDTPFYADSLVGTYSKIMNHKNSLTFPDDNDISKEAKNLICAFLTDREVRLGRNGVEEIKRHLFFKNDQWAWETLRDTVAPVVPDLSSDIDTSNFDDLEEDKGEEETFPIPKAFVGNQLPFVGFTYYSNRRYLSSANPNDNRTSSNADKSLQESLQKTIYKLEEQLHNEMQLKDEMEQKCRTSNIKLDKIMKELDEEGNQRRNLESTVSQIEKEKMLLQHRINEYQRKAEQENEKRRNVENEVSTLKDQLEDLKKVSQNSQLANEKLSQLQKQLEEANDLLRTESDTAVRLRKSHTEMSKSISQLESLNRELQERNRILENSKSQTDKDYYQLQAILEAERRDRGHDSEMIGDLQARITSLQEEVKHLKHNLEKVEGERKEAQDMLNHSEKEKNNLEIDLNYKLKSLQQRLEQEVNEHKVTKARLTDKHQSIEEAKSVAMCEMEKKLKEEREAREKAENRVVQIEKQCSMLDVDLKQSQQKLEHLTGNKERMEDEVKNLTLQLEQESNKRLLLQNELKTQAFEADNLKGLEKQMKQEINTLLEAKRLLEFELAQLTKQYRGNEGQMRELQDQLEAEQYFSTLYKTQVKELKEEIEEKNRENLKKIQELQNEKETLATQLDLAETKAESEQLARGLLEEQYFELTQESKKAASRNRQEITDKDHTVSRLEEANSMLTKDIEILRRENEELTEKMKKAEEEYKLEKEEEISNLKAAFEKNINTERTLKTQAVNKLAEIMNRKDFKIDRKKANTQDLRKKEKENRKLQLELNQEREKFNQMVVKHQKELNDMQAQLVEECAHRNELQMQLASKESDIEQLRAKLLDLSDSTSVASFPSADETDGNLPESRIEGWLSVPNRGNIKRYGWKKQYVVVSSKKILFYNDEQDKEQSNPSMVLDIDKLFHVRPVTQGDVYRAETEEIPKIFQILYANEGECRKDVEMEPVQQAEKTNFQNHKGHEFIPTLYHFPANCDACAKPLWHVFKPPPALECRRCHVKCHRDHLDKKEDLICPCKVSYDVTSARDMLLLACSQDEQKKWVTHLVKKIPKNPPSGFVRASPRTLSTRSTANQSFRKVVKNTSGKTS

With `O=C(Nc1ccc(-c2n[nH]c(=O)c3ccccc23)cc1)c1nn(CC2CCOC2)c2ccccc12` (centres unmarked) [Example 146, N-[4-(4-oxo-3,4-dihydrophthalazin-1-yl)phenyl]-1-(oxolan-3-ylmethyl)-1H-indazole-3-carboxamide], the concentration for half-maximal inhibition (IC50) at ROCK1 and against ROCK2 was 0.1 to 100 nM in each case.

Regarding `O=C(Nc1ccc(-c2n[nH]c(=O)c3ccccc23)cc1)c1ncn(-c2ccccn2)n1` [Example 240, N-[4-(4-oxo-3,4-dihydrophthalazin-1-yl)phenyl]-1-(pyridin-2-yl)-1H-1,2,4-triazole-3-carboxamide], the values for the half-inhibitory concentration (IC50) on ROCK1 and against ROCK2 were 101 to 1000 nM and 0.1 to 100 nM, respectively.

In the case of `COc1ccc2c(c1)N(C(=O)Cc1ccc(-c3n[nH]c(=O)c4ccccc34)cc1)CC2` [Example 41, 4-{4-[2-(6-methoxy-2,3-dihydro-1H-indol-1-yl)-2-oxoethyl]phenyl}-1,2-dihydrophthalazin-1-one], the half-inhibitory concentration (IC50) at ROCK1 and on ROCK2 was 0.1 to 100 nM in each case.

For `O=C(Nc1ccc(-c2n[nH]c(=O)c3ccccc23)cc1O)c1nn(CC2CCOC2)c2ccccc12` (centres unmarked) [Example 354, N-(2-Hydroxy-4-(4-oxo-3,4-dihydrophthalazin-1-yl)phenyl)-1-((tetrahydrofuran-3-yl)methyl)-1H-indazole-3-carboxamide], the half-maximal inhibitory concentration (IC50) on ROCK1 and at ROCK2 was 0.1 to 100 nM throughout.

For the compound `COCCCn1nc(C(=O)Nc2ccc(-c3n[nH]c(=O)c4ccccc34)cc2)c2ccccc21` [Example 163, 1-(3-methoxypropyl)-N-[4-(4-oxo-3,4-dihydrophthalazin-1-yl)phenyl]-1H-indazole-3-carboxamide], the IC50 on ROCK1 and against ROCK2 was 0.1 to 100 nM each time.

`CN1CCN(C(=O)COc2ccc3c(c2)N(C(=O)Cc2ccc(-c4n[nH]c(=O)c5ccccc45)cc2)CC3)CC1` [Example 299, 4-(4-(2-(6-(2-(4-Methylpiperazin-1-yl)-2-oxoethoxy)indolin-1-yl)-2-oxoethyl)phenyl)phthalazin-1(2H)-one]: the IC50 at ROCK1 is 101 to 1000 nM; against ROCK2 it was 0.1 to 100 nM.

For the compound `Cc1ccn2c(C(=O)Nc3ccc(-c4n[nH]c(=O)c5ccccc45)cc3)c(C)nc2c1` [Example 139, 2,7-dimethyl-N-[4-(4-oxo-3,4-dihydrophthalazin-1-yl)phenyl]imidazo[1,2-a]pyridine-3-carboxamide], the 50% inhibitory concentration (IC50) on ROCK1 and against ROCK2 was 0.1 to 100 nM in each case.

`O=C(Cc1ccc(-c2n[nH]c(=O)c3ccccc23)cc1)N1CCc2ccc(OCc3cccnc3)cc21` [Example 270, 4-(4-{2-oxo-2-[6-(pyridin-3-ylmethoxy)-2,3-dihydro-1H-indol-1-yl]ethyl}phenyl)-1,2-dihydrophthalazin-1-one]: the IC50 at ROCK1 and against ROCK2 was 0.1 to 100 nM in each case.

As to `CC(C)(O)COc1ccc2c(c1)N(C(=O)Cc1ccc(-c3c[nH]c(=O)c4ccccc34)cc1)CC2` [Example 288, 4-(4-(2-(6-(2-Hydroxy-2-methylpropoxy)indolin-1-yl)-2-oxoethyl)phenyl)isoquinolin-1(2H)-one], the 50% inhibitory concentration (IC50) at ROCK1 and on ROCK2 was 0.1 to 100 nM each time.

`Cc1ccc(N2CC(C(=O)Nc3ccc(-c4n[nH]c(=O)c5ccccc45)cc3)CC2=O)cc1` (centres unmarked) [Example 210, 1-(4-methylphenyl)-5-oxo-N-[4-(4-oxo-3,4-dihydrophthalazin-1-yl)phenyl]pyrrolidine-3-carboxamide]: the IC50 on ROCK1 and against ROCK2 was 101 to 1000 nM throughout.

As for `CC(C)(O)CCn1nc(C(=O)Nc2ccc(-c3n[nH]c(=O)c4ccccc34)cc2)c2ccccc21` [Example 333, 1-(3-Hydroxy-3-methylbutyl)-N-(4-(4-oxo-3,4-dihydrophthalazin-1-yl)phenyl)-1H-indazole-3-carboxamide], the IC50 on ROCK1 and at ROCK2 was 0.1 to 100 nM in each case.

In the case of `O=C(Cn1nc(C(=O)Nc2ccc(-c3n[nH]c(=O)c4ccccc34)cc2)c2ccccc21)NCC1(O)CCC1` [Example 335, 1-(2-(((1-Hydroxycyclobutyl)methyl)amino)-2-oxoethyl)-N-(4-(4-oxo-3,4-dihydrophthalazin-1-yl)phenyl)-1H-indazole-3-carboxamide], the 50% inhibitory concentration (IC50) on ROCK1 and at ROCK2 was 0.1 to 100 nM throughout.

Regarding `O=C(Nc1ccc(-c2n[nH]c(=O)c3ccccc23)cc1)c1nc2ncccn2n1` [Example 112, N-[4-(4-oxo-3,4-dihydrophthalazin-1-yl)phenyl]-[1,2,4]triazolo[1,5-a]pyrimidine-2-carboxamide], the results for the IC50 on ROCK1 and at ROCK2 were 1000 to 50000 nM and 101 to 1000 nM, respectively.

`O=C(Nc1ccc(-c2n[nH]c(=O)c3ccccc23)cc1)c1n[nH]c2ncccc12` [Example 110, N-[4-(4-oxo-3,4-dihydrophthalazin-1-yl)phenyl]-1H-pyrazolo[3,4-b]pyridine-3-carboxamide]: the concentration for half-maximal inhibition (IC50) at ROCK1 and against ROCK2 was 0.1 to 100 nM throughout.

As for `Cc1cc(NC(=O)Cc2ccc(-c3n[nH]c(=O)c4ccccc34)cc2)no1` [Example 27, N-(5-methyl-1,2-oxazol-3-yl)-2-[4-(4-oxo-3,4-dihydrophthalazin-1-yl)phenyl]acetamide], the IC50 at ROCK1 was 1000 to 50000 nM; against ROCK2, 0.1 to 100 nM.

Take `O=C(Nc1ccc(-c2n[nH]c(=O)c3ccccc23)cc1)C1CCN(Cc2ccccc2)C1` (centres unmarked) [Example 59, 1-benzyl-N-[4-(4-oxo-3,4-dihydrophthalazin-1-yl)phenyl]pyrrolidine-3-carboxamide]: the 50% inhibitory concentration (IC50) on ROCK1 and on ROCK2 was 1000 to 50000 nM each time.

Turning to `COc1ccc2c(c1)N(C(=O)Nc1ccc(-c3c[nH]c(=O)c4cc(OC)c(OC)cc34)cc1)CC2` [Example 257, N-(4-(6,7-Dimethoxy-1-oxo-1,2-dihydroisoquinolin-4-yl)phenyl)-6-methoxyindoline-1-carboxamide], the 50% inhibitory concentration (IC50) at ROCK1 lay in the range of 1000 to 50000 nM; against ROCK2, 0.1 to 100 nM.

On to `O=C(Cc1ccc(-c2n[nH]c(=O)c3ccccc23)cc1)N1CCC(Cc2ccccc2)CC1` [Example 17, 4-{4-[2-(4-benzylpiperidin-1-yl)-2-oxoethyl]phenyl}-1,2-dihydrophthalazin-1-one], for which the 50% inhibitory concentration (IC50) at ROCK1 lay within 1000 to 50000 nM; at ROCK2, 0.1 to 100 nM.

Turning to `O=C(Nc1ccc(-c2n[nH]c(=O)c3ccccc23)cc1)c1n[nH]c2c1C(=O)CCC2` [Example 109, 4-oxo-N-[4-(4-oxo-3,4-dihydrophthalazin-1-yl)phenyl]-4,5,6,7-tetrahydro-1H-indazole-3-carboxamide], the IC50 at ROCK1 and at ROCK2 was 0.1 to 100 nM each time.

Consider `O=C(Nc1ccc(-c2n[nH]c(=O)c3ccccc23)cc1)c1cn2ccccc2n1` [Example 89, N-[4-(4-oxo-3,4-dihydrophthalazin-1-yl)phenyl]imidazo[1,2-a]pyridine-2-carboxamide], for which the IC50 at ROCK1 is 101 to 1000 nM; at ROCK2 it was 0.1 to 100 nM.

For `COc1cccc(-n2cc(C(=O)Nc3ccc(-c4n[nH]c(=O)c5ccccc45)cc3)nn2)c1` [Example 404, 1-(3-Methoxyphenyl)-N-(4-(4-oxo-3,4-dihydrophthalazin-1-yl)phenyl)-1H-1,2,3-triazole-4-carboxamide], the concentration for half-maximal inhibition (IC50) at ROCK1 and against ROCK2 was 0.1 to 100 nM each time.

As for `O=C(Cc1ccc(-c2n[nH]c(=O)c3ccccc23)cc1)NCC1CC1` [Example 14, N-(cyclopropylmethyl)-2-[4-(4-oxo-3,4-dihydrophthalazin-1-yl)phenyl]acetamide], the IC50 on ROCK1 and against ROCK2 was 1000 to 50000 nM each time.

Regarding `Cn1nc(C2CC2)cc1C(=O)Nc1ccc(-c2n[nH]c(=O)c3ccccc23)cc1` [Example 407, 3-Cyclopropyl-1-methyl-N-(4-(4-oxo-3,4-dihydrophthalazin-1-yl)phenyl)-1H-pyrazole-5-carboxamide], the IC50 on ROCK1 and on ROCK2 was 0.1 to 100 nM each time.

For `Cc1cc(NC(=O)c2cnn(-c3ccccc3)c2C)ccc1-c1n[nH]c(=O)c2ccccc12` [Example 394, 5-Methyl-N-(3-methyl-4-(4-oxo-3,4-dihydrophthalazin-1-yl)phenyl)-1-phenyl-1H-pyrazole-4-carboxamide], the IC50 on ROCK1 fell in the range of 101 to 1000 nM; at ROCK2 it was 0.1 to 100 nM.

Regarding `Cn1c(C(=O)Nc2ccc(-c3c[nH]c(=O)c4ccccc34)cc2)cc2ccccc21` [Example 248, 1-Methyl-N-(4-(1-oxo-1,2-dihydroisoquinolin-4-yl)phenyl)-1H-indole-2-carboxamide], the IC50 is 101 to 1000 nM at ROCK1 and 0.1 to 100 nM at ROCK2.

As to `COc1ccc2c(c1)N(C(=O)Nc1ccc(-c3c[nH]c(=O)c4ccc(OC)cc34)cc1)CC2` [Example 268, 6-Methoxy-N-(4-(6-methoxy-1-oxo-1,2-dihydroisoquinolin-4-yl)phenyl)indoline-1-carboxamide], the IC50 on ROCK1 and on ROCK2 was 0.1 to 100 nM throughout.

On to `COCC(O)Cn1cc(C(=O)Nc2ccc(-c3n[nH]c(=O)c4ccccc34)cc2)cn1` (centres unmarked) [Example 379, 1-(2-Hydroxy-3-methoxypropyl)-N-(4-(4-oxo-3,4-dihydrophthalazin-1-yl)phenyl)-1H-pyrazole-4-carboxamide], for which the figures for the half-maximal inhibitory concentration (IC50) at ROCK1 and at ROCK2 were 101 to 1000 nM and 0.1 to 100 nM, respectively.

In the case of `Cc1nn(-c2cccc(Cl)c2Cl)nc1C(=O)Nc1ccc(-c2n[nH]c(=O)c3ccccc23)cc1` [Example 238, 2-(2,3-dichlorophenyl)-5-methyl-N-[4-(4-oxo-3,4-dihydrophthalazin-1-yl)phenyl]-2H-1,2,3-triazole-4-carboxamide], the figures for the 50% inhibitory concentration (IC50) at ROCK1 and against ROCK2 were 101 to 1000 nM and 0.1 to 100 nM, respectively.

`O=C(Oc1ccc(-c2n[nH]c(=O)c3ccccc23)cc1)N1CCC(c2ccccc2)C1` (centres unmarked) [Example 69, 4-(4-Oxo-3,4-dihydrophthalazin-1-yl)phenyl 3-phenylpyrrolidine-1-carboxylate]: the concentration for half-maximal inhibition (IC50) on ROCK1 was 1000 to 50000 nM; at ROCK2, 101 to 1000 nM.

As to `CC(C)Oc1ccc2c(c1)N(C(=O)Cc1ccc(-c3n[nH]c(=O)c4ccccc34)cc1)CC2` [Example 258, 4-(4-(2-(6-Isopropoxyindolin-1-yl)-2-oxoethyl)phenyl)phthalazin-1(2H)-one], the IC50 at ROCK1 and against ROCK2 was 0.1 to 100 nM each time.

For the compound `O=C(Nc1ccc(-c2n[nH]c(=O)c3ccccc23)cc1)c1c[nH]c2ncccc12` [Example 135, N-[4-(4-oxo-3,4-dihydrophthalazin-1-yl)phenyl]-1H-pyrrolo[2,3-b]pyridine-3-carboxamide], the IC50 on ROCK1 fell in the range of 101 to 1000 nM; on ROCK2 it was 0.1 to 100 nM.
